One series deals with Homo sapiens. In words: (§1) Pharmacokinetic parameters for Pentoxifylline evaluated after oral administration of Pentoxifylline tablet and in aqueous solution. The format is ADME, organism-based. To be noted: in vivo, po, dose 400 mg, dosed compound id 54, dosed compound name PENTOXIFYLLINE, tissue Plasma.
A short description of series [1]: as §1. It counts as ADME, organism-based. To be noted: human, in vivo, dosed compound id 54, dosed compound name PENTOXIFYLLINE, tissue Plasma.

For orientation: Tmax means the time at which the peak concentration occurs. Usually half-life stands for the time in which the quantity being followed falls by half. Low readings indicate fast loss, high ones slow loss. For `CC(=O)CCCCn1c(=O)c2c(ncn2C)n(C)c1=O` [PENTOXIFYLLINE], the Tmax in the series on Homo sapiens was 2 to 4 h; in series [1], 1 h. The same molecule had a half-life in series [1] (dose 100 to 400 mg) of 0.4 to 0.8 h.

Values taken from ChEMBL document CHEMBL3832075, “DailyMed|setid=ff7c9b1c-4192-4d09-a2ab-b80ec14cd424 | PENTOXIL- pentoxifylline tablet, film coated, extended release|UPSHER-SMITH LABORATORIES, INC”.
